Our source for the TGI and GI50 values is PubChem BioAssay (NCI).

The structures appear in SMILES notation.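 Five concentrations, 48 hours, 96-well plates. Abbreviation: GI50, concentration required for 50% inhibition of growth. TGI: concentration producing complete growth inhibition.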

Test systems include U251 CNS; SK-MEL-2 melanoma; CAKI-1 renal; SNB-75 CNS; OVCAR-3 ovarian; DMS 114 small cell lung; M14 melanoma; NCI/ADR-RES ovarian; BT-549 breast; HOP-18 NSCLC.
Assay in all cases: NCI tumour cell line growth inhibition, 48 h

In the case of `COC(=O)[C@H]1CC(=O)C=C2CCCC21` (some centres not stated), the TGI with U251 CNS, in the assay with SK-MEL-2 melanoma, in the assay with CAKI-1 renal, in the assay on SNB-75 CNS, with OVCAR-3 ovarian and in the assay on DMS 114 small cell lung was over 100 µM throughout. Besides, in the assay on M14 melanoma, the TGI is over 100 µM.

Regarding `O=C1C=CC(=O)c2c1cc1ccccc1c2O`, the TGI with U251 CNS is 27.1 µM; with NCI/ADR-RES ovarian it was 25.8 µM; in the assay on SK-MEL-2 melanoma it was 30.9 µM; in the assay on CAKI-1 renal it was 12.7 µM; in the assay on BT-549 breast it was 21.6 µM; in the assay with SNB-75 CNS it was 33.2 µM. Besides, the TGI in the assay on OVCAR-3 ovarian was 4.8 µM; with HOP-18 NSCLC, 32.3 µM; with M14 melanoma it was 26.5 µM.

For the compound `CC1(C)C(=O)CCC(=O)C(C)(C)C2=CC=C(O2)C(C)(C)C(=O)CCC(=O)C(C)(C)C2=CC=C1O2`, the TGI in the assay on U251 CNS, in the assay on SK-MEL-2 melanoma, in the assay on CAKI-1 renal, with OVCAR-3 ovarian and in the assay with HOP-18 NSCLC was over 100 µM in each case.

In the case of `CC(C)(C)C1CCP(=O)(c2ccccc2)CC1` (configuration not stated), the TGI in the assay with U251 CNS, in the assay on SK-MEL-2 melanoma, with SNB-75 CNS, in the assay on OVCAR-3 ovarian, in the assay on DMS 114 small cell lung and in the assay with HOP-18 NSCLC was over 100 µM each time. In the assay with M14 melanoma, this compound gave a TGI of over 100 µM.

Take `Cc1ccc(S(=O)(=O)Nc2cccc(C)c2C)cc1`: the TGI with U251 CNS is 79.9 µM; in the assay with SNB-75 CNS, 86.8 µM; with OVCAR-3 ovarian, over 100 µM; in the assay on DMS 114 small cell lung, over 100 µM; in the assay on HOP-18 NSCLC, over 100 µM; in the assay with M14 melanoma, over 100 µM.

Consider `CC1=C(C(=O)Nc2cccc(C(F)(F)F)c2)C(c2ccccc2F)C(C(=O)Nc2cccc(C(F)(F)F)c2)=C(C)N1`, for which the TGI with U251 CNS worked out at 27.1 µM; in the assay with SK-MEL-2 melanoma, 11 µM; in the assay with CAKI-1 renal, 25 µM; in the assay with SNB-75 CNS, 79.6 µM; in the assay on OVCAR-3 ovarian, 17.8 µM; in the assay with DMS 114 small cell lung, 14.2 µM. The compound further returned a TGI in the assay with M14 melanoma of 15.7 µM.

Turning to `NS(=O)(=O)c1cccc(-c2cc3ccncc3cc2OCc2ccccc2)c1`, the GI50 is 13 µM with U251 CNS; 11.2 µM in the assay on NCI/ADR-RES ovarian; 7.43 µM in the assay with SK-MEL-2 melanoma; 10.6 µM in the assay on CAKI-1 renal; 7.65 µM in the assay on BT-549 breast; 3.23 µM in the assay on SNB-75 CNS. Besides, the values for the GI50 in the assay on OVCAR-3 ovarian and with M14 melanoma were 10.9 µM and 14.5 µM, respectively. Moreover, the TGI in the assay on U251 CNS was over 25 µM; in the assay on NCI/ADR-RES ovarian, over 25 µM; with SK-MEL-2 melanoma, over 19.6 µM; in the assay with CAKI-1 renal it was over 25 µM; in the assay on BT-549 breast, over 25 µM; in the assay with SNB-75 CNS it was over 25 µM. For the same compound, the TGI in the assay with OVCAR-3 ovarian and with M14 melanoma was over 25 µM in each case.

Consider `CS(=O)/C(C#N)=C\C=C\c1cccc(Cl)c1` (configuration not stated), for which the GI50 in the assay on U251 CNS was 1.71 µM; with NCI/ADR-RES ovarian it was 2.66 µM; in the assay with SK-MEL-2 melanoma it was 4.44 µM; in the assay on CAKI-1 renal, 2.06 µM; with BT-549 breast, 2 µM; in the assay with SNB-75 CNS, 7.11 µM. The GI50 in the assay on OVCAR-3 ovarian was 2.45 µM; with M14 melanoma, 2.57 µM. Besides, the TGI in the assay on U251 CNS was found to be 7.81 µM; in the assay on NCI/ADR-RES ovarian it was 37.7 µM; in the assay on SK-MEL-2 melanoma it was 19.1 µM; with CAKI-1 renal, 13.4 µM; in the assay with BT-549 breast, 11.9 µM; in the assay on SNB-75 CNS, 37.4 µM. In addition, the TGI with OVCAR-3 ovarian worked out at 10.1 µM; in the assay on M14 melanoma, 11.2 µM.

As for `O=c1[nH]cc(CO)c(=O)[nH]1`, the GI50 with U251 CNS, in the assay on NCI/ADR-RES ovarian, with SK-MEL-2 melanoma, in the assay on CAKI-1 renal, in the assay with BT-549 breast and in the assay with SNB-75 CNS was over 100 µM each time. Further, the GI50 in the assay on OVCAR-3 ovarian and in the assay with M14 melanoma was over 100 µM in each case. The TGI with U251 CNS, in the assay on NCI/ADR-RES ovarian, in the assay on SK-MEL-2 melanoma, in the assay with CAKI-1 renal, in the assay on BT-549 breast and in the assay on SNB-75 CNS was over 100 µM throughout. The TGI in the assay on OVCAR-3 ovarian and with M14 melanoma was over 100 µM throughout.

For `O=C1c2cccc3cccc(c23)C(=O)N1CC#Cc1ccc2c3c(cccc13)C(=O)N(CCN1CCNCC1)C2=O`, the GI50 in the assay on U251 CNS was 1.87 µM; with NCI/ADR-RES ovarian, over 100 µM; with SK-MEL-2 melanoma, 18.5 µM; in the assay on CAKI-1 renal, 2.72 µM; with BT-549 breast it was 9.51 µM; with SNB-75 CNS it was 4.49 µM. Besides, the figures for the GI50 in the assay on OVCAR-3 ovarian and with M14 melanoma were 3.6 µM and 2.53 µM, respectively. The TGI in the assay on U251 CNS is 3.78 µM; in the assay with NCI/ADR-RES ovarian, over 100 µM; in the assay on SK-MEL-2 melanoma, 42 µM; in the assay with CAKI-1 renal, 10.5 µM; in the assay on BT-549 breast, 34.4 µM; in the assay on SNB-75 CNS it was 19.9 µM. Further, the TGI in the assay on OVCAR-3 ovarian is 12.4 µM; with M14 melanoma it was 6.19 µM.

Consider `COc1ccc(-c2nnc(Nc3nc(O)c(C4=c5cc(OC(F)(F)F)ccc5=NC4=O)s3)o2)cc1`, for which the GI50 in the assay on U251 CNS was 12.4 µM; in the assay with NCI/ADR-RES ovarian it was 20.2 µM; with SK-MEL-2 melanoma, 20.3 µM; in the assay with CAKI-1 renal, 12.4 µM; with BT-549 breast it was 19.7 µM; in the assay on SNB-75 CNS, 15.3 µM. Moreover, the figures for the GI50 in the assay with OVCAR-3 ovarian and with M14 melanoma were 5.75 µM and 8.76 µM, respectively. Moreover, the TGI in the assay with U251 CNS is 30.7 µM; with NCI/ADR-RES ovarian, 75.4 µM; in the assay on SK-MEL-2 melanoma it was 39.3 µM; in the assay with CAKI-1 renal, 69.2 µM; in the assay on BT-549 breast, 37.7 µM; with SNB-75 CNS, 36.8 µM. Further, the TGI in the assay with OVCAR-3 ovarian worked out at 90.8 µM; with M14 melanoma, 28.5 µM.

With `CCOC(=O)C1=C(C)NC(C)=C(C(=O)OCC)C1c1cc(Br)c(O)c(OC)c1`, the GI50 in the assay with U251 CNS is 4.01 µM; with NCI/ADR-RES ovarian, 2.71 µM; in the assay on SK-MEL-2 melanoma it was 5.29 µM; with CAKI-1 renal it was 4.79 µM; with BT-549 breast, 2.8 µM; in the assay with SNB-75 CNS, 1.85 µM. The GI50 is 2.34 µM with OVCAR-3 ovarian and 3.05 µM in the assay on M14 melanoma. In addition, the TGI with U251 CNS is 15.6 µM; in the assay with NCI/ADR-RES ovarian, 9.4 µM; in the assay on SK-MEL-2 melanoma, 20.1 µM; in the assay with CAKI-1 renal, 30.8 µM; with BT-549 breast it was 10.6 µM; in the assay with SNB-75 CNS it was 7.14 µM. The TGI in the assay with OVCAR-3 ovarian amounted to 5.15 µM; in the assay with M14 melanoma, 10.1 µM.
